According to the NIST ThermoML archive (doi:10.1021/je4005245):

Settings: 101.33 kPa, Liquid, Vibrating wire viscometry

CC(C)CCCC(C)CCCC(C)CCCCC(C)CCCC(C)CCCC(C)C (configuration not stated) [2,6,10,15,19,23-hexamethyltetracosane]
Settings	viscosity [mPa·s]
283.77 K	60.2
288.47 K	46.1
293.29 K	35.59
298.12 K	27.95
303.07 K	22.45
308.09 K	18.3
313.13 K	15
318.17 K	12.5
323.19 K	10.57
328.26 K	8.99
333.2 K	7.8
338.18 K	6.81
343.07 K	6
348.08 K	5.32
353.08 K	4.72
358.13 K	4.2
362.98 K	3.78

CCCCC(CC)COC(=O)c1ccccc1C(=O)OCC(CC)CCCC (configuration not stated) [bis(2-ethylhexyl) 1,2-benzenedicarboxylate]
Settings	viscosity [mPa·s]
288.53 K	110.7
293.38 K	78.73
298.29 K	57.94
303.33 K	43.27
308.23 K	33.17
313.18 K	26.13
317.99 K	21.08
323.02 K	16.96
328.12 K	13.91
333.19 K	11.62
337.71 K	9.903
343.53 K	8.268
348.48 K	7.158
353.68 K	6.199

CCCCC(CC)COC(=O)CCCCCCCCC(=O)OCC(CC)CCCC (configuration not stated) [bis(2-ethylhexyl) decanedioate]
Settings	viscosity [mPa·s]
284.06 K	31.95
288.71 K	25.84
293.37 K	21.14
298.26 K	17.42
303.1 K	14.55
307.9 K	12.37
313.24 K	10.4
318.26 K	9.023
323.17 K	7.865
328.26 K	6.878
333.2 K	6.067
338.16 K	5.435
342.81 K	4.883
348.07 K	4.38
352.98 K	3.987
358.09 K	3.626
